Test results reported in patent US12173039B1, “TPL2 inhibiting agents, uses thereof, and detection of TPL2” (Washington University, priority 2021, dated 2024).

Key:
[1] = system: p-FAK, p-ERK, total FAK, and FoxM1; assay: Reverse-phase protein array (RPPA) on HPNE-KRAS^G12D cells overexpressing IRAK4; format: cell-based, human
Description: All lysates were prepared according to sample preparation guidelines provided by MD Anderson Cancer Center (MDACC). HPNE-KRAS^G12D were infected with retroviral particles containing AU1-tagged IRAK4 WT or vector control in presence of 8 μg mL-1 polybrene, selected with blasticidin (10 μg mL-1) and RPPA was performed. For drug treatment, IRAK4 overexpressing cells were treated with AS2444697 2 μM or vehicle (DMSO) for 24 hours. For evaluation of TPL2 WT and E188K, 293T cells were transfected in duplicates with Vector (pbabe-puro), TPL2 WT or TPL2 E188K along with equal amount of polyethylenimine. Cells were harvested 48 hrs post-transfection and lysates were prepared and sent for RPPA. For both RPPA experiments, lysates were quantified by Bradford assay (Thermo Scientific), equalized for concentration, and denatured and reduced by adding 4×SDS sample buffer (without bromophenol blue) and boiling for 5 minutes.

MAPK activity = assay: Immunoblots of MAPK activity in murine PDAC lines KP2 and KI; format: cell-based; settings: 24 hours, serum-free
Description: (§1) Standard immunoblotting procedure was followed. Cells were washed twice with ice-cold 1×PBS and lysed with ice-cold triton-X lysis buffer (25 mM Tris, pH 7.4, 150 mM NaCl, 5 mM EDTA, 1% Triton-X) containing 1× protease (10 μg mL-1 leupeptin, 700 ng mL-1 pepstatin, 170 ng mL-1 aprotinin, 1 mM PMSF) and phosphatase (10 mM NaF, 1 mM Na3VO4, 1 mM Na4P2O^7, 5 mM Na b-glycerophosphate) inhibitors. Lysates were quantified by Bradford assay (Thermo Scientific), normalized for concentration, and reduced and denatured with 6×SDS sample buffer followed by boiling for 5 minutes. 20-40 μg of protein per sample was resolved by SDS-PAGE, blotted on PVDF membrane and probed with primary antibodies (Cell Signaling Technologies: p-ERK1/2 (#4370), p-MEK1/2 (#9154), ERK1/2 (#4695), MEK1/2 (#8727), p-p105 (#4806), NFS2KB1 p105/p50 (#3035), p-IRAK4 (#11927), IRAK4 (#4363), ubiquitin (#43124), anti-HA (#3724), p-p90RSK (#11989), RSK1/2/3 (#9355), p-TPL2 (#4491), PARP (#9532), p-B-RAF S445 (#2696), BRAF (#9433S). Santa Cruz Biotechnology: GAPDH (#sc-32233), p-p65 […] (#sc101752). Thermo Fisher Scientific: p-55 TPL2 (#PA5-36635). EMD Millipore: IRAK4 (#07-418). R&D systems: TPL2/MAP3K8 (#MAB4586). Novus Biologicals: anti-AU1 (#NB600-453). Abcam: p-p65 […] (#ab194726)). […]

p-TPL2 = assay: Immunoblot of activated ectopic TPL2 (anti-p-TPL2 antibody); format: cell-based, human; settings: Pa01C and HPAC cells overexpressing TPL2
Description: as §1

[2] = system: serum-response element (SRE); assay: Serum-response element (SRE) luciferase reporter assay; format: cell-based, human; settings: HPAC cells
Description: Cells stably expressing plasmid encoding serum-response-element (SRE) or NFKB promoter driven Firefly luciferase and constitutive Renilla luciferase were seeded at equal density per well and treatment was initiated the next day for 16-24 duration. Alternatively, 293T reporter cells were transfected in duplicate or triplicate with 1 μg of appropriate plasmid DNA. Medium was replaced 16-18 hours later and at 48 hours post-transfection reporter activity was measured using Dual-Glo® Luciferase Assay System. Data was acquired using SpectraMax i3Microplate Reader and analysis was performed by calculating ratio of firefly:renilla. Values were normalized to control and graphed using GraphPad Prism v7/8 software.

HEK T/tH-KRAS^G12V cells = assay: Drug response and viability assay, HEK T/tH-KRAS^G12V with or without MEK1-5DD; format: cell-based, human; settings: 96 hours, GI50
Description: Cells were seeded at 1500-2500 cells per well in triplicates, in 96 well format. Next day, appropriate inhibitor was added in serial dilution from 1.00×102 μM or indicated single doses. Vehicle (DMSO) was added to match volume of inhibitor used for highest concentration. After 96-120 hours, 5× AlamarBlue® reagent (resazurin sodium salt, Sigma) was added to wells and incubated for 2-4 hours. Fluorescence at 585 nm (excitation 555 nm) was measured by SpectraMax i3 Microplate Reader. Raw values were normalized to vehicle, analyzed and graphed using GraphPad Prism v7/8 software.

SMILES: CC[C@@H]1[C@H](F)C(=O)N[C@@H]1COc1nccc2cc(C(N)=O)c(OC)cc12 [PF06650833, 1-(((2S,3S,4S)-3-ethyl-4-fluoro-5-oxopyrrolidin-2-yl)methoxy)-7-methoxyisoquinoline-6-carboxamide]
- MAPK target proteins (RPPA) [1]: suppressed
- IRAK4-induced increase in p-FAK, p-ERK, total FAK, and FoxM1 (RPPA) ([1]; 24 hours): reversed
- MAPK activity (immunoblot) (MAPK activity): dose-dependently suppressed
- activated state of ectopically expressed TPL2 (p-TPL2) (p-TPL2): dose-dependently deactivated
- SRE-driven luciferase reporter activity [2]: dose-dependently reduced
- loss of sensitivity to growth inhibition on expression of MEK1-5DD (HEK T/tH-KRAS^G12V cells): approximately 3 fold
